Experimental data taken from publication PMC11087509, “Multimodal binding and inhibition of bacterial ribosomes by the antimicrobial peptides Api137 and Api88” (Nature Communications, 2024).
Entries after “also recorded” stand apart in the source; their conditions may differ. Where a SMILES comes first, the peptide text is derived from it. The star is where a group is joined. Orn(α-tetramethylguanidino) = CN(C)C(=N[C@@H](CCCN)C(=O)*)N(C)C

Key:
purified 70S ribosome [1] = biological target: T1, purified 70S ribosome (Escherichia coli, UniProt P0A7M6+P0ADZ0+P60723+P61175); assay: Fluorescence polarization binding, purified 70S ribosome; parameters: species or system E. coli
T1 construct: obtain highly pure E. coli 70S ribosomes; made in house; host or cells: E. coli BW25113 (native ribosomes isolated, not recombinant)
Description: (§1) E. coli BW25113 were grown in LB medium and harvested by centrifugation (5000× g, 15 min, 4 °C) at an OD600 of 3-4. Cell pellets were washed in ribosome preparation buffer (20 mmol/L HEPES-KOH, 6 mmol/L MgCl2, 30 mmol/L NH4Cl, pH 7.6, 4 °C), centrifuged (4100× g, 30 min, 4 °C), and suspended in ribosome preparation buffer ([…]) containing freshly added ß-mercaptoethanol (4 mmol/L). Lysozyme was added to the resuspended cells and incubated for 30 min on ice. Cells were disrupted in six cycles using a FastPrep-24^TM 5 G instrument (MP Biomedicals, Eschwege, Germany) with the BigPrep 50 mL setting (40 s, 4.0 m/s) and one-minute incubation on ice between cycles. […]
(§2) Ribosomes were purified by anion exchange chromatography using an Äkta Pure System (GE Healthcare, Freiburg, Germany) and a CIM®QA column (8 mL, 2 µm channels; Sartorius Stedim Biotech GmbH, Göttingen, Germany). […] The ribosome concentration was estimated by recording the absorbance at 260 nm (considering that 15 AU corresponds to a ribosome concentration of 1 g/L). […]
Dissociation constants (Kd) were determined using purified 70S ribosome, 50S or 30S subunit and cf-labeled peptides in ribosome preparation buffer. […] Fluorescence polarization was measured on a […]^TM microplate reader (Beckman Coulter, Krefeld, Germany) in the top reading position (λexc = 485 nm, λem = 535 nm). […]

50S subunit = biological target: T2, 50S subunit (Escherichia coli, UniProt P0A7M6+P0ADZ0+P60723+P61175); assay: Fluorescence polarization binding, 50S subunit; parameters: species or system E. coli
T2 construct: Ribosomes were isolated from the E. coli strain MRE600; made in house; native subunits isolated in house
Description: Several hundred grams of log-phase cells were commercially produced and purchased. Cells were washed in buffer A (20 mmol/L HEPES (pH 7.6), 6 mmol/L MgAc2, 30 mmol/L AcOK, 4 mmol/L ß-mercaptoethanol) and lysed in an M-110L microfluidizer (Microfluidics) at 17,000 psi and 4 °C. Cell debris was removed by low-speed centrifugation (15,000× g, 10 min, 4 °C) to obtain S30 lysate. Crude ribosomes, mostly containing 70S ribosomes, were pelleted by ultracentrifugation (40,000× g, 17 h, 4 °C) and resuspended in buffer A. The 70S ribosomes were separated from 30S and 50S subunits by zonal ultracentrifugation (Beckman Ti-15; 6–40% sucrose gradient in buffer A, 44,000× g, 16 h, 4 °C). The 70S-containing fractions were collected, and the ribosomes were sedimented by ultracentrifugation (40,000× g, 17 h, 4 °C). Since these 70S ribosomes still contained tRNAs and mRNA, they were resuspended in buffer B (20 mmol/L HEPES (pH 7.6), 1 mmol/L MgAc2, 0.2 mol/L NH4Ac, 4 mmol/L ß-mercaptoethanol), which allows for dissociation into 30S and 50S subunits, and subjected to a second zonal centrifugation (Beckman Ti-15, 44,000× g, 16 h, 4 °C), but this time in a 6–40% sucrose gradient prepared in buffer B. Fractions containing 30S and 50S subunits were collected, sedimented by ultracentrifugation (40,000× g, 17 h, 4 °C), resuspended in buffer A, aliquoted, shock-frozen in liquid nitrogen, and stored at −80 °C.
Dissociation constants (Kd) were determined using purified 70S ribosome, 50S or 30S subunit and cf-labeled peptides in ribosome preparation buffer. Briefly, black 384-well plates (flat bottom, 781209, Greiner Bio-One GmbH) were blocked with casein (0.5%, w/v) in PBS containing 0.05% (v/v) Tween 20 at 4 °C overnight and washed three times with phosphate buffer. A 2-fold dilution series (22 steps) of pure 70S ribosome, 50S or 30S subunit (10 μL per well) in ribosome preparation buffer was prepared in a black 384-well plate. The cf-labeled peptide was dissolved in ribosome preparation buffer (10 μL, 40 nmol/L), added to each well, centrifuged (500 x g, 2 min), and incubated at 28 ± 1 °C for 90 min. Fluorescence polarization was measured on a […]^TM microplate reader (Beckman Coulter, Krefeld, Germany) in the top reading position (λexc = 485 nm, λem = 535 nm). Data were fitted to a nonlinear dose-response logistic transition equation [y = y0 + a/(1 + (x/x0)b)] using the Levenberg-Marquardt algorithm, with Kd represented by the x0 coefficients (GraphPad Prism for Windows v. 10.1.2, San Diego, CA, USA).

purified 70S ribosome [2] = biological target: T1, purified 70S ribosome; assay: Fluorescence polarization competition with cf-Api88 on purified 70S ribosome; type: binding, E. coli; conditions: competition with cf-Api88, pure 70S ribosome; 28 °C
Description: as §1, §2
Inhibition constants (Ki) were determined for the pure 70S ribosome using cf-labeled and unlabeled peptides in the ribosome preparation buffer. […] Fluorescence polarization was measured on a […]^TM microplate reader in the top reading position (λexc = 485 nm, λem = 535 nm). […] The Ki values were calculated as described by Mathias and Jung[39].

DnaK = conditions: read-out: Kd (DnaK); peer review response; cited from earlier work
Excerpt: We now introduce trigger factor in line 446 as “…molecular chaperone…” In addition, we hypothesize that Api88 binds to the ribosome within the contact area of TF, which interacts with uL23 and uL29, two proteins we report here as cross-linked to Api88.

recombinant TF = conditions: fluorescence polarization; cited from earlier work
Excerpt: Binding sites two and three are close to uL23 and uL29, which is also supported by Api88(Y7B) cross-links. These ribosomal proteins are located adjacent to the PET exit and are binding hubs for the molecular chaperone trigger factor (TF)[34] and the signal recognition particle (SRP), a universally conserved and essential cellular machinery that directs proteins destined for membrane integration to the plasma membrane[35],[36]. This co-translational targeting is initiated by a hydrophobic signal sequence in the nascent protein chain recognized by SRP as it exits the PET. It is appealing to hypo ...

CC[C@H](C)[C@H](NC(=O)[C@H](Cc1ccc(O)cc1)NC(=O)[C@@H](NC(=O)[C@@H]1CCCN1C(=O)[C@H](CCCNC(=N)N)NC(=O)[C@H](CC(N)=O)NC(=O)[C@H](CC(N)=O)NC(=O)[C@H](CCCN)N=C(N(C)C)N(C)C)C(C)C)C(=O)N1CCC[C@H]1C(=O)N[C@@H](CCCNC(=N)N)C(=O)N1CCC[C@H]1C(=O)N[C@@H](CCCNC(=N)N)C(=O)N1CCC[C@H]1C(=O)N1CCC[C@H]1C(=O)N[C@@H](Cc1c[nH]cn1)C(=O)N1CCC[C@H]1C(=O)N[C@@H](CCCNC(=N)N)C(=O)N[C@@H](CC(C)C)C(N)=O [Api88] ({Orn(α-tetramethylguanidino)}-NNRPVYIPRPRPPHPRL-NH2)
Kd (purified 70S ribosome [1]; apparent Kd, cf-labeled PrAMP (10 μL, 40 nmol/L), ribosome preparation buffer (20 mmol/L HEPES-KOH, 6 mmol/L MgCl2, 30 mmol/L NH4Cl, pH 7.6), 28 °C, 90 min, mean of triplicates, read-out: Kd 70S ribosome pure): 1820 ± 80 nM
higher affinity of Api88 than Api137 (purified 70S ribosome [1]; purified 70S ribosomes and 50S subunits): 2-3 fold
Kd (50S subunit; apparent Kd, cf-labeled PrAMP (10 μL, 40 nmol/L), ribosome preparation buffer pH 7.6, 28 °C, 90 min, mean of triplicates): 580 ± 50 nM
Kd for 50S subunit lower than for 70S ribosome (50S subunit; ratio 70S / 50S, cf-labeled): threefold

CC[C@H]1OC(=O)[C@H](C)[C@@H](O[C@H]2C[C@@](C)(OC)[C@@H](O)[C@H](C)O2)[C@H](C)[C@@H](O[C@@H]2O[C@H](C)C[C@H](N(C)C)[C@H]2O)[C@](C)(O)C[C@@H](C)C(=O)[C@H](C)[C@@H](O)[C@]1(C)O [erythromycin]
displacement of cf-Api88 / decrease in fluorescence polarization (purified 70S ribosome [2]): significantly competing with the binding of cf-Api88; also recorded: reduced the fluorescence polarization to a much lesser extent

GNNRPVYIPQPRPPHPRL [apidaecin 1b, reference compound]
Kd (DnaK): ~5000 nM
Kd (recombinant TF): > 100000 nM
